Data reported in paper PMC12891850 (Acta Pharmaceutica Sinica. B, 2025).

Target: T1, aldehyde oxidase 1 (AOX1) (Homo sapiens, UniProt Q06278)
T1 sequence (Q06278 1-1338): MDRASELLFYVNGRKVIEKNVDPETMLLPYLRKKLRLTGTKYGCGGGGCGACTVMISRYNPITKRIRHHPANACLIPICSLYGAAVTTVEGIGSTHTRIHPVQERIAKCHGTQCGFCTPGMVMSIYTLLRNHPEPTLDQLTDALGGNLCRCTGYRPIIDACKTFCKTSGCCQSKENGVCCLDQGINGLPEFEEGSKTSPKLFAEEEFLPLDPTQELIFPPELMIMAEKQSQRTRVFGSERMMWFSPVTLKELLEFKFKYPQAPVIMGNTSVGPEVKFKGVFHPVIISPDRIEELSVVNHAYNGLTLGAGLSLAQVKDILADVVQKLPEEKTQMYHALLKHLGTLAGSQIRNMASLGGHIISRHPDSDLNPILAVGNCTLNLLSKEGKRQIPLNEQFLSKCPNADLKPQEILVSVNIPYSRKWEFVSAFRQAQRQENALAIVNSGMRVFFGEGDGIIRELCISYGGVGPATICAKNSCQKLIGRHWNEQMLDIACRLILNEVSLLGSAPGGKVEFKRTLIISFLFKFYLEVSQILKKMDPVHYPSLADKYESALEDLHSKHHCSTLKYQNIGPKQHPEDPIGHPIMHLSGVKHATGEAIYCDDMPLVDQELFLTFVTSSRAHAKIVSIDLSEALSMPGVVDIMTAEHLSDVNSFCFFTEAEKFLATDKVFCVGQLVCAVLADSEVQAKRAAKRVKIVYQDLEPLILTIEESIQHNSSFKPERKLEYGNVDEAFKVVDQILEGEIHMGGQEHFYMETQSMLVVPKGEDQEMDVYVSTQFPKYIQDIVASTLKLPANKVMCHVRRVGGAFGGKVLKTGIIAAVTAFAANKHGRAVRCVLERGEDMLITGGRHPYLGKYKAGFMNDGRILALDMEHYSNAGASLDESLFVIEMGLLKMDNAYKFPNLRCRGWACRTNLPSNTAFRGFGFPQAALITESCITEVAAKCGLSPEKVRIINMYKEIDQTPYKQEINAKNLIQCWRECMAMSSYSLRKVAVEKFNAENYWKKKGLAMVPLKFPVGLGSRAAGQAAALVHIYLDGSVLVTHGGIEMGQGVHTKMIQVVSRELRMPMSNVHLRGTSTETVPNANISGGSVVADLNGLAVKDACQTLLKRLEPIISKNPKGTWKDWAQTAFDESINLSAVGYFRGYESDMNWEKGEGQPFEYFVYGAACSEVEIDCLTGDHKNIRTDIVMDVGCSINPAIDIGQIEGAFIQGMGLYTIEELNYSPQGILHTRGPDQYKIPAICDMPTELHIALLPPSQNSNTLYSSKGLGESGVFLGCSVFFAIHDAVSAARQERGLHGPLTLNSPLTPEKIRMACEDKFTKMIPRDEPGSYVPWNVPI
Assay: SPR
Format: binding

Compound: CNC(=O)c1cc(Oc2ccc(NC(=O)Nc3ccc(Cl)c(C(F)(F)F)c3)c(F)c2)ccn1 [regorafenib]
- Kd: 42.7 µM
